Experiment: molar heat capacity at constant pressure
Conditions: Liquid, Flow calorimetry

CCOC(F)(F)C(F)(F)C(F)(F)C(F)(F)F [1-ethoxy-1,1,2,2,3,3,4,4,4-nonafluorobutane]
Conditions | molar heat capacity at constant pressure [J/K/mol]
245.62 K, 100 kPa | 307.66
245.63 K, 10000 kPa | 295.52
245.64 K, 5000 kPa | 299.74
245.64 K, 15000 kPa | 286.54
254.42 K, 100 kPa | 317.7
254.44 K, 5000 kPa | 310.04
254.44 K, 10000 kPa | 305.81
254.44 K, 15000 kPa | 297.89
264.28 K, 100 kPa | 328.53
264.29 K, 10000 kPa | 319.55
264.3 K, 5000 kPa | 321.66
264.3 K, 15000 kPa | 307.4
274.14 K, 100 kPa | 337.24
274.16 K, 10000 kPa | 328.26
274.17 K, 5000 kPa | 332.49
274.17 K, 15000 kPa | 318.23
283.97 K, 100 kPa | 343.58
283.98 K, 10000 kPa | 340.67
283.99 K, 5000 kPa | 338.83
283.99 K, 15000 kPa | 333.02
293.9 K, 100 kPa | 365.5
293.92 K, 10000 kPa | 356.52
293.93 K, 5000 kPa | 360.75
293.93 K, 15000 kPa | 344.64
303.85 K, 100 kPa | 373.69
303.85 K, 10000 kPa | 364.71
303.86 K, 5000 kPa | 368.93
303.86 K, 15000 kPa | 356.52
313.79 K, 100 kPa | 389.8
313.9 K, 10000 kPa | 377.91
313.91 K, 5000 kPa | 385.04
313.91 K, 15000 kPa | 369.2
323.6 K, 100 kPa | 393.76
323.62 K, 10000 kPa | 384.78
323.63 K, 5000 kPa | 389
323.63 K, 15000 kPa | 384.51
333.28 K, 100 kPa | 407.23
333.29 K, 5000 kPa | 402.47
333.29 K, 10000 kPa | 398.25
333.29 K, 15000 kPa | 399.04
343.51 K, 100 kPa | 419.9
343.52 K, 10000 kPa | 410.92
343.53 K, 5000 kPa | 414.88
343.53 K, 15000 kPa | 407.49
353.61 K, 100 kPa | 431.79
353.62 K, 10000 kPa | 422.81
353.63 K, 5000 kPa | 426.77
353.63 K, 15000 kPa | 420.43

Source: the NIST ThermoML archive (doi:10.1016/j.fluid.2014.03.017)
